Measurements as given in patent publication US10239843B2 (CANCER RESEARCH TECHNOLOGY LIMITED, priority 2014, dated 2019).
Read-outs that look alike come from different tables or passages of the source.

Experiments:
PARG in HeLa cell line = test: PARG cell assay (PAR chain immunofluorescence after MMS); format: cell-based; conditions: HeLa cells, MMS treatment, read-out: PARG Cell IC50
Outline: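 HeLa cells were dosed with compound for 1 h, then given MMS at 50 μg/mL final for a further hour. Cells were methanol-fixed, permeabilised and stained overnight at 4° C with anti-PAR monoclonal antibody. Retained nuclear PAR chains, detected by indirect immunofluorescence, indicate PARG inhibition.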

Human Full Length PARG = Human Full Length PARG (Homo sapiens (Human), UniProt Q86W56); test: PARG enzyme assay (TR-FRET); format: biochemical; conditions: read-out: PARG Biochem IC50
Sequence of Human Full Length PARG (Q86W56 whole entry): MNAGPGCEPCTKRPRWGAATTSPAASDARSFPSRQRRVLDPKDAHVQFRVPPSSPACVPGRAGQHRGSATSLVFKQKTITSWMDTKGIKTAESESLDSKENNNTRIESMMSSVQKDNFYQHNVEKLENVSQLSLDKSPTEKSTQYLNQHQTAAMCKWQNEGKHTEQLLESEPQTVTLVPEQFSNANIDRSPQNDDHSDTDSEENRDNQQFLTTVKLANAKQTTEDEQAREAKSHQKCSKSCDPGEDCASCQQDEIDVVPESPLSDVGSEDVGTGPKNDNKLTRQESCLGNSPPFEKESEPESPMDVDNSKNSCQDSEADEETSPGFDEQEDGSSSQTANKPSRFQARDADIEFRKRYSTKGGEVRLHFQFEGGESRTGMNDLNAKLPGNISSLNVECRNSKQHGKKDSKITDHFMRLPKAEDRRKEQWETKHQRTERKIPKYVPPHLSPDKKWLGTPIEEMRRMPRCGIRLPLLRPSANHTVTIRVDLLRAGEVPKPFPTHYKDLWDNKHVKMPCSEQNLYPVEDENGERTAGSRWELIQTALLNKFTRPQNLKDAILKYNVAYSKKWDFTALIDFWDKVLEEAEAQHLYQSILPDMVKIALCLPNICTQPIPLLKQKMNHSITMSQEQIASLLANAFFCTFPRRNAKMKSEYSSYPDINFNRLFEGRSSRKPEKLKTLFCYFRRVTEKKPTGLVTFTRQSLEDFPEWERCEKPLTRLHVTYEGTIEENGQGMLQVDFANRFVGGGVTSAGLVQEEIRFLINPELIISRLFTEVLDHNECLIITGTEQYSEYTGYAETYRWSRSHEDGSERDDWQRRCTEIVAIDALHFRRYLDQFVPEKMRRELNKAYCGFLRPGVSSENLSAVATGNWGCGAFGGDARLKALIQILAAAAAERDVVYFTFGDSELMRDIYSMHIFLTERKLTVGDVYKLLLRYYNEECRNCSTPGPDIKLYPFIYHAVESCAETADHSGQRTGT

SMILES	IC50 (PARG in HeLa cell line; Homo sapiens)	IC50 (Human Full Length PARG)	IC50 (PARG in HeLa cell line)
CCC(CC)Cn1c(=O)n(Cc2cc(C)no2)c(=O)c2cc(S(=O)(=O)NC3(C)CC3)ccc21 [Example 470, 1-(2-Ethylbutyl)-N-(1-methylcyclopropyl)-3-[(3-methylisoxazol-5-yl)methyl]-2,4-dioxo-quinazoline-6-sulfonamide]	266 nM	546 nM	
COC1(Cn2c(=O)n(Cc3cc(C)no3)c(=O)c3cc(S(=O)(=O)NC4(C)CC4)ccc32)CCCC1 [Example 471, 1-[(1-Methoxycyclopentyl)methyl]-N-(1-methylcyclopropyl)-3-[(3-methylisoxazol-5-yl)methyl]-2,4-dioxo-quinazoline-6-sulfonamide]	241 nM	550 nM	
Cc1cc(Cn2c(=O)c3cc(S(=O)(=O)NC4(C)CC4)ccc3n(CCC(C)C)c2=O)on1 [Example 472, 1-Isopentyl-N-(1-methylcyclopropyl)-3-[(3-methylisoxazol-5-yl)methyl]-2,4-dioxo-quinazoline-6-sulfonamide]	198 nM	273 nM	
Cc1cc(Cn2c(=O)c3cc(S(=O)(=O)NC4(C)CC4)ccc3n(Cc3cnn(C(C)C)c3)c2=O)on1 [Example 473, 1-[(1-Isopropylpyrazol-4-yl)methyl]-N-(1-methylcyclopropyl)-3-[(3-methylisoxazol-5-yl)methyl]-2,4-dioxo-quinazoline-6-sulfonamide]		196 nM	144 nM
Cc1cc(Cn2c(=O)c3cc(S(=O)(=O)NC4(C)CC4)ccc3n(CCCC(C)C)c2=O)on1 [Example 474, 1-Isohexyl-N-(1-methylcyclopropyl)-3-[(3-methylisoxazol-5-yl)methyl]-2,4-dioxo-quinazoline-6-sulfonamide]	548 nM	331 nM	
Cn1c(=O)n(CC(=O)N2CCCC2)c(=O)c2cc(S(=O)(=O)NC3(C)CC3)ccc21 [Example 475, 1-Methyl-N-(1-methylcyclopropyl)-2,4-dioxo-3-(2-oxo-2-pyrrolidin-1-yl-ethyl)quinazoline-6-sulfonamide]	1170 nM	6120 nM	
CN(C)C(=O)Cn1c(=O)c2cc(S(=O)(=O)NC3(C)CC3)ccc2n(C)c1=O [Example 476, N,N-Dimethyl-2-[1-methyl-6-[(1-methylcyclopropyl)sulfamoyl]-2,4-dioxo-quinazolin-3-yl]acetamide]	1340 nM	3710 nM	
Cc1cc(Cn2c(=O)c3cc(S(=O)(=O)NC4(C)CC4)ccc3n(CC3CC(C)(C)C3)c2=O)on1 [Example 477, 1-[(3,3-Dimethylcyclobutyl)methyl]-N-(1-methylcyclopropyl)-3-[(3-methylisoxazol-5-yl)methyl]-2,4-dioxo-quinazoline-6-sulfonamide]		208 nM	403 nM
Cc1ncc(Cn2c(=O)c3cc(S(=O)(=O)NC4(C)CC4)ccc3n(CC3CC(C)(C)C3)c2=O)s1 [Example 478, 1-[(3,3-dimethylcyclobutyl)methyl]-N-(1-methylcyclopropyl)-3-[(2-methylthiazol-5-yl)methyl]-2,4-dioxo-quinazoline-6-sulfonamide]	121 nM	109 nM	
Cn1cc(Cn2c(=O)[nH]c3ccc(S(=O)(=O)NC4(C=O)CC4)cc3c2=O)cn1 [Example 479, N-(1-Formylcyclopropyl)-3-[(1-methylpyrazol-4-yl)methyl]-2,4-dioxo-1H-quinazoline-6-sulfonamide]	3650 nM	10200 nM	
Cc1cc(Cn2c(=O)n(Cc3cnn(C)c3)c(=O)c3cc(S(=O)(=O)NC(C)(C)C)ccc32)n(C)n1 [Example 480]		784 nM	1530 nM
Cn1c(=O)n(CC2COC2)c(=O)c2cc(S(=O)(=O)NC3(C)CC3)ccc21 [Example 481, 1-Methyl-N-(1-methylcyclopropyl)-3-(oxetan-3-ylmethyl)-2,4-dioxo-quinazoline-6-sulfonamide]	2840 nM	7000 nM	
Cc1cc(Cn2c(=O)c3cc(S(=O)(=O)NC4(C)CC4)cc(Br)c3n(C)c2=O)on1 [Example 482, 8-Bromo-1-methyl-N-(1-methylcyclopropyl)-3-[(3-methylisoxazol-5-yl)methyl]-2,4-dioxo-quinazoline-6-sulfonamide]	274 nM	830 nM	
Cc1cc(Cn2c(=O)c3cc(S(=O)(=O)NC4(C)CC4)cc(-c4cnn(C)c4)c3n(C)c2=O)on1 [Example 483, 1-Methyl-N-(1-methylcyclopropyl)-3-[(3-methylisoxazol-5-yl)methyl]-8-(1-methylpyrazol-4-yl)-2,4-dioxo-quinazoline-6-sulfonamide]	845 nM	1690 nM	
Cc1cc(Cn2c(=O)n(Cc3cnn(C)c3)c(=O)c3cc(S(=O)(=O)NC4(C(F)(F)F)CC4)ccc32)n(C)n1 [Example 485, 1-[(2,5-Dimethylpyrazol-3-yl)methyl]-3-[(1-methylpyrazol-4-yl)methyl]-2,4-dioxo-N-[1-(trifluoromethyl)cyclopropyl]quinazoline-6-sulfonamide]		7100 nM	4070 nM
Cn1cc(Cc2cc3cc(S(=O)(=O)NC4(C)CC4)ccc3[nH]c2=O)cn1 [Example 486, N-(1-Methylcyclopropyl)-3-[(1-methylpyrazol-4-yl)methyl]-2-oxo-1H-quinoline-6-sulfonamide]	2280 nM	1620 nM	

SMILES	IC50 (PARG in HeLa cell line; Homo sapiens)	IC50 (Human Full Length PARG)	IC50 (PARG in HeLa cell line)
CC1(NS(=O)(=O)c2ccc3[nH]c(=O)c(Br)cc3c2)CC1 [Example 487, 3-Bromo-N-(1-methylcyclopropyl)-2-oxo-1H-quinoline-6-sulfonamide]	> 30000 nM	8970 nM	
Cn1cc(Cc2cc3cc(S(=O)(=O)NC4(C)CC4)ccc3n(C)c2=O)cn1 [Example 491, 1-Methyl-N-(1-methylcyclopropyl)-3-[(1-methylpyrazol-4-yl)methyl]-2-oxo-quinoline-6-sulfonamide]		3440 nM	1790 nM
Cc1cc(Cn2c(=O)c(Cc3cnn(C)c3)cc3cc(S(=O)(=O)NC4(C)CC4)ccc32)n(C)n1 [Example 492, 1-[(2,5-Dimethylpyrazol-3-yl)methyl]-N-(1-methylcyclopropyl)-3-[(1-methylpyrazol-4-yl)methyl]-2-oxo-quinoline-6-sulfonamide]	741 nM	489 nM	
Cc1cc(Cn2c(=O)c3cc(S(=O)(=O)NC4(C)CC4)cc(-c4ccc(C)s4)c3n(C)c2=O)on1 [Example 493, 1-Methyl-N-(1-methylcyclopropyl)-3-[(3-methylisoxazol-5-yl)methyl]-8-(5-methyl-2-thienyl)-2,4-dioxo-quinazoline-6-sulfonamide]	524 nM	453 nM	
Cn1c(=O)n(Cc2cnsc2)c(=O)c2cc(S(=O)(=O)NC3(CF)CC3)ccc21 [Example 494, N-[1-(Fluoromethyl)cyclopropyl]-3-(isothiazol-4-ylmethyl)-1-methyl-2,4-dioxo-quinazoline-6-sulfonamide]	1100 nM	1260 nM	
CC1(NS(=O)(=O)c2ccc3[nH]c(=O)n(CCC#N)c(=O)c3c2)CC1 [Example 496, 3-(2-Cyanoethyl)-N-(1-methylcyclopropyl)-2,4-dioxo-1H-quinazoline-6-sulfonamide]		2670 nM	5490 nM
Cn1c(=O)n(CCC#N)c(=O)c2cc(S(=O)(=O)NC3(C)CC3)ccc21 [Example 497, 3-(2-Cyanoethyl)-1-methyl-N-(1-methylcyclopropyl)-2,4-dioxo-quinazoline-6-sulfonamide]	2250 nM	2710 nM	
Cc1nnc(Cn2c(=O)c3cc(S(=O)(=O)NC4(C)CC4)ccc3n(C)c2=O)s1 [Example 500, 1-Methyl-N-(1-methylcyclopropyl)-3-[(5-methyl-1,3,4-thiadiazol-2-yl)methyl]-2,4-dioxo-quinazoline-6-sulfonamide]		472 nM	350 nM
Cc1ncc(Cn2c(=O)c3cc(S(=O)(=O)NC4(C)CC4)ccc3n(CC#N)c2=O)s1 [Example 502, 1-(Cyanomethyl)-N-(1-methylcyclopropyl)-3-[(2-methylthiazol-5-yl)methyl]-2,4-dioxo-quinazoline-6-sulfonamide]	171 nM	284 nM	
Cc1cc(Cn2c(=O)c3cc(S(=O)(=O)NC4(C)CC4)ccc3n(CC#N)c2=O)on1 [Example 503, 1-(Cyanomethyl)-N-(1-methylcyclopropyl)-3-[(3-methylisoxazol-5-yl)methyl]-2,4-dioxo-quinazoline-6-sulfonamide]	350 nM	604 nM	
Cc1oncc1Cn1c(=O)c2cc(S(=O)(=O)NC3(C)CC3)ccc2n(C)c1=O [Example 506, 1-Methyl-N-(1-methylcyclopropyl)-3-[(5-methylisoxazol-4-yl)methyl]-2,4-dioxo-quinazoline-6-sulfonamide]	539 nM	770 nM	
Cc1cc(Cn2c(=O)c3cc(S(=O)(=O)NC4(CF)CC4)ccc3n(C)c2=O)on1 [Example 514, N-[1-(Fluoromethyl)cyclopropyl]-1-methyl-3-[(3-methylisoxazol-5-yl)methyl]-2,4-dioxo-quinazoline-6-sulfonamide]	178 nM	384 nM	
Cc1nnc(Cn2c(=O)c3cc(S(=O)(=O)NC4(CF)CC4)ccc3n(C)c2=O)s1 [Example 515, N-[1-(Fluoromethyl)cyclopropyl]-1-methyl-3-[(5-methyl-1,3,4-thiadiazol-2-yl)methyl]-2,4-dioxo-quinazoline-6-sulfonamide]	698 nM	579 nM	
Cc1cc(Cn2c(=O)[nH]c3ccc(S(=O)(=O)NC4(CF)CC4)cc3c2=O)on1 [Example 516, N-[1-(Fluoromethyl)cyclopropyl]-3-[(3-methylisoxazol-5-yl)methyl]-2,4-dioxo-1H-quinazoline-6-sulfonamide]	807 nM	443 nM	
Cc1cc(Cn2c(=O)c3cc(S(=O)(=O)NC4(CF)CC4)ccc3n(CC3CC3)c2=O)on1 [Example 517, 1-(Cyclopropylmethyl)-N-[1-(fluoromethyl)cyclopropyl]-3-[(3-methylisoxazol-5-yl)methyl]-2,4-dioxo-quinazoline-6-sulfonamide]	41 nM	56 nM	
